Tests used:
human NK1 receptor = human NK1 receptor (Homo sapiens, UniProt P25103); test: NK1 receptor affinity, [3H]substance P binding; conditions: human NK1 receptors in CHO cells, [3H]substance P 0.6 nM; read-out: pki NK1 (converted)
Procedure: The affinity of test compounds for the NK1 receptor was evaluated at human NK1 receptors in CHO cells infected with the human NK1 receptor (using the Semliki virus expression system) and radiolabelled with [^3H]substance P (final concentration 0.6 nM). Binding assays were performed in HEPES buffer (50 mM, pH 7.4) containing BSA (0.04%) leupeptin (16.8 μg/ml), MnCl2 (3mM) and phosphoramidon (2 μM). Binding assays consisted of 250 μl of membrane suspension (approximately 1.5 μg/well in a 96 well plate), […] of buffer of displacing agent and 125 μl of [^3H]substance P. Displacement curves were determined with at least seven concentrations of the compound. The assay tubes were incubated for 60 min at room temperature after which time the tube contents were rapidly filtered under vacuum through GF/C filters presoaked for 60 min with PEI (0.3%) with 3×1 ml washes of HEPES buffer (50 mM, pH 7.4). The radioactivity retained on the filters was measured by scintillation counting. All assays were performed in duplicate in at least 2 separate experiments.

[1] = molecular target: T1, Recombinant human NK3 (hNK3) receptor (Homo sapiens, UniProt P29371); test: NK3 receptor affinity, [3H]SR142801 binding; conditions: hNK3 receptor membranes, [3H]SR142801 0.3 nM; read-out: pki NK3 (converted)
T1 construct: expressed in transfected cells
T1 sequence (P29371 1-465): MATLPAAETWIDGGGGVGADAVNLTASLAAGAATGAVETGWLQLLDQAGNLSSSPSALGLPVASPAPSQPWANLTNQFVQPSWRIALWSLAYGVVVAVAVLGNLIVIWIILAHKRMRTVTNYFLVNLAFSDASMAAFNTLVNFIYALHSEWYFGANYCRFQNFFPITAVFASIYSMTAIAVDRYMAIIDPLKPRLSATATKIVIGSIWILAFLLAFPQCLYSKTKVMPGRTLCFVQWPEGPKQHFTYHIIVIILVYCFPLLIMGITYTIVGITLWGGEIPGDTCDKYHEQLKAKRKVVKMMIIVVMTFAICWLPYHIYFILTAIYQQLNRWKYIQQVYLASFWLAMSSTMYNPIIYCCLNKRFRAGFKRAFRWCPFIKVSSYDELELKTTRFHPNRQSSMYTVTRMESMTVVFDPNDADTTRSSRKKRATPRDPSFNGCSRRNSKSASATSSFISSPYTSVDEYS
Procedure: Recombinant human NK3 (hNK3) receptor affinity was determined in a 96 well plate assay, using [^3H]SR142801 (final concentration 0.3 nM) to radiolabel the hNK3 receptor in the presence of 10 concentrations of competing compound or buffer. Non specific binding was determined using 10 μM SB222200. Assay buffer consisted of Tris-HCl (50 mM, pH 7.4), BSA (0.1%), MnCl2 (4 mM) and phosphoramidon (1 μM). Membrane preparations of hNK3 receptors (approximately 2.5 μg/well in a 96 well plate) were used to initiate the incubation for 90 min at room temperature. This assay was terminated by rapid filtration under vacuum through GF/C filters, presoaked for 90 min with PEI (0.3%), with 3×0.5 ml washes of ice-cold Tris buffer (50 mM, pH 7.4) containing 0.1% BSA. The radioactivity retained on the filters was measured by scintillation counting. All assays were performed in duplicate in at least two separate experiments.

[2] = phase II trial, cited from earlier work

Chain of human NK1 receptor (P25103 whole entry): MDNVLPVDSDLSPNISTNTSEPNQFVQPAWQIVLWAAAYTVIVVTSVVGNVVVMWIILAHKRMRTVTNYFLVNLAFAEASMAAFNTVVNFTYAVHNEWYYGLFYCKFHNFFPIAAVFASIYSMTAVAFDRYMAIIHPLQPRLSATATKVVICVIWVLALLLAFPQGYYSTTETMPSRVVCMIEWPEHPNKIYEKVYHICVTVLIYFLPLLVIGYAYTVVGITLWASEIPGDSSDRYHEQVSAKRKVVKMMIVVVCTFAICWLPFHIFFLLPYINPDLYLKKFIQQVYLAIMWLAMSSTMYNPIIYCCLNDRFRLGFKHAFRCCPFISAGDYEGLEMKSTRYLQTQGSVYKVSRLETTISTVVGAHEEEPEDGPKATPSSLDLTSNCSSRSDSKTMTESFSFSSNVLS

SMILES	Ki (human NK1 receptor) [nM]	Ki [1] [nM]	activity on positive symptoms of schizophrenia ([2]; altered behaviour, delusion, hallucinations, extreme emotions, excited motor activity, incoherent speech)	activity on negative symptoms of schizophrenia ([2]; depression, anhedonia, social isolation or memory and attention deficits)
Cc1cc(F)ccc1-c1cc(C2CCCN(S(C)(=O)=O)C2)ncc1N(C)C(=O)C(C)(C)c1cc(C(F)(F)F)cc(C(F)(F)F)c1 (racemic) [Example 12, (RS)-2-(3,5-Bis-trifluoromethyl-phenyl)-N-[4-(4-fluoro-2-methyl-phenyl)-1′-methanesulfonyl-1′,2′,3′,4′,5′,6′-hexahydro-[2,3′]bipyridinyl-5-yl]-N-methyl-isobutyramide]	0.589	21.4	–	–
CC(=O)N1CCCC(c2cc(-c3ccc(F)cc3C)c(N(C)C(=O)C(C)(C)c3cc(C(F)(F)F)cc(C(F)(F)F)c3)cn2)C1 (racemic) [Example 13, (RS)-N-[1′-Acetyl-4-(4-fluoro-2-methyl-phenyl)-1′,2′,3′,4′,5′,6′-hexahydro-[2,3′]bipyridinyl-5-yl]-2-(3,5-bis-trifluoromethyl-phenyl)-N-methyl-isobutyramide]	1.62	14.5	–	–
CN(C(=O)C(C)(C)c1cc(C(F)(F)F)cc(C(F)(F)F)c1)c1cnc(OCCO)cc1-c1ccccc1Cl [Example 1, 2-(3,5-Bis-trifluoromethyl-phenyl)-N-[4-(2-chloro-phenyl)-6-(2-hydroxy-ethoxy)-pyridin-3-yl]-N-methyl-isobutyramide]	0.562	19.5	–	–
CN(C(=O)C(C)(C)c1cc(C(F)(F)F)cc(C(F)(F)F)c1)c1cnc(OC(CO)CO)cc1-c1ccccc1Cl [Example 2, 2-(3,5-Bis-trifluoromethyl-phenyl)-N-[4-(2-chloro-phenyl)-6-(2-hydroxy-1-hydroxymethyl-ethoxy)-pyridin-3-yl]-N-methyl-isobutyramide]	1.23	9.12	–	–
Cc1cc(F)ccc1-c1cc(OC[C@@H]2CCCN2)ncc1N(C)C(=O)C(C)(C)c1cc(C(F)(F)F)cc(C(F)(F)F)c1 [Example 3, (S)-2-(3,5-Bis-trifluoromethyl-phenyl)-N-[4-(4-fluoro-2-methyl-phenyl)-6-(pyrrolidin-2-ylmethoxy)-pyridin-3-yl]-N-methyl-isobutyramide]	0.851	23.4	–	–
Cc1cc(F)ccc1-c1cc(SCCO)ncc1N(C)C(=O)C(C)(C)c1cc(C(F)(F)F)cc(C(F)(F)F)c1 [Example 4, 2-(3,5-Bis-trifluoromethyl-phenyl)-N-[4-(4-fluoro-2-methyl-phenyl)-6-(2-hydroxy-ethylsulfanyl)-pyridin-3-yl]-N-methyl-isobutyramide]	2.34	8.51	–	–
Cc1cc(F)ccc1-c1cc(-c2cccnc2)ncc1N(C)C(=O)C(C)(C)c1cc(C(F)(F)F)cc(C(F)(F)F)c1 [Example 5, 2-(3,5-Bis-trifluoromethyl-phenyl)-N-[4-(4-fluoro-2-methyl-phenyl)-[2,3′]bipyridinyl-5-yl]-N-methyl-isobutyramide]	1.29	16.2	–	–
Cc1cc(F)ccc1-c1cc(-c2ccc[n+]([O-])c2)ncc1N(C)C(=O)C(C)(C)c1cc(C(F)(F)F)cc(C(F)(F)F)c1 [Example 6, 2-(3,5-Bis-trifluoromethyl-phenyl)-N-[4-(4-fluoro-2-methyl-phenyl)-1′-oxy-[2,3′]bipyridinyl-5-yl]-N-methyl-isobutyramide]	0.977	24.5	–	–
Cc1cc(F)ccc1-c1cc(-c2cccc(CO)c2)ncc1N(C)C(=O)C(C)(C)c1cc(C(F)(F)F)cc(C(F)(F)F)c1 [Example 7, 2-(3,5-Bis-trifluoromethyl-phenyl)-N-[4-(4-fluoro-2-methyl-phenyl)-6-(3-hydroxymethyl-phenyl)-pyridin-3-yl]-N-methyl-isobutyramide]	1.2	6.92	–	–
Cc1cc(F)ccc1-c1cc(-c2cncc(CO)c2)ncc1N(C)C(=O)C(C)(C)c1cc(C(F)(F)F)cc(C(F)(F)F)c1 [Example 8, 2-(3,5-Bis-trifluoromethyl-phenyl)-N-[4-(4-fluoro-2-methyl-phenyl)-5′-hydroxymethyl-[2,3′]bipyridinyl-5-yl]-N-methyl-isobutyramide]	1.82	6.17	–	–
Cc1cc(F)ccc1-c1cc(-c2ccnc(CO)c2)ncc1N(C)C(=O)C(C)(C)c1cc(C(F)(F)F)cc(C(F)(F)F)c1 [Example 9, 2-(3,5-Bis-trifluoromethyl-phenyl)-N-[4-(4-fluoro-2-methyl-phenyl)-2′-hydroxymethyl-[2,4′]bipyridinyl-5-yl]-N-methyl-isobutyramide]	1.55	11.5	–	–
Cc1cc(F)ccc1-c1cc(C2=CCN(S(C)(=O)=O)CC2)ncc1N(C)C(=O)C(C)(C)c1cc(C(F)(F)F)cc(C(F)(F)F)c1 [Example 10, 2-(3,5-Bis-trifluoromethyl-phenyl)-N-[4-(4-fluoro-2-methyl-phenyl)-1′-methanesulfonyl-1′,2′,3′,6′-tetrahydro-[2,4′]bipyridinyl-5-yl]-N-methyl-isobutyramide]	0.617	2.63	–	–
Cc1cc(F)ccc1-c1cc(C2CCN(S(C)(=O)=O)CC2)ncc1N(C)C(=O)C(C)(C)c1cc(C(F)(F)F)cc(C(F)(F)F)c1 [Example 11, 2-(3,5-Bis-trifluoromethyl-phenyl)-N-[4-(4-fluoro-2-methyl-phenyl)-1′-methanesulfonyl-1′,2′,3′,4′,5′,6′-hexahydro-[2,4′]bipyridinyl-5-yl]-N-methyl-isobutyramide]	1.1	6.46	–	–
Cc1cc(F)ccc1-c1cc(C2=CCSCC2)ncc1N(C)C(=O)C(C)(C)c1cc(C(F)(F)F)cc(C(F)(F)F)c1 [Example 14, 2-(3,5-Bis-trifluoromethyl-phenyl)-N-[6-(3,6-dihydro-2H-thiopyran-4-yl)-4-(4-fluoro-2-methyl-phenyl)-pyridin-3-yl]-N-methyl-isobutyramide]	1.15	14.1	–	–
Cc1cc(F)ccc1-c1cc(C2=CCS(=O)(=O)CC2)ncc1N(C)C(=O)C(C)(C)c1cc(C(F)(F)F)cc(C(F)(F)F)c1 [Example 15, 2-(3,5-Bis-trifluoromethyl-phenyl)-N-[6-(1,1-dioxo-1,2,3,6-tetrahydro-1λ^6-thiopyran-4-yl)-4-(4-fluoro-2-methyl-phenyl)-pyridin-3-yl]-N-methyl-isobutyramide]	0.589	6.76	–	–
Cc1cc(F)ccc1-c1cc(C2CCS(=O)(=O)CC2)ncc1N(C)C(=O)C(C)(C)c1cc(C(F)(F)F)cc(C(F)(F)F)c1 [Example 16, 2-(3,5-Bis-trifluoromethyl-phenyl)-N-[6-(1,1-dioxo-hexahydro-1λ^6-thiopyran-4-yl)-4-(4-fluoro-2-methyl-phenyl)-pyridin-3-yl]-N-methyl-isobutyramide]	1.38	16.6	–	–
CC(=O)N(C)C1(c2ccccc2)CCN(CCC[C@]2(c3ccc(Cl)c(Cl)c3)CCCN(C(=O)c3ccccc3)C2)CC1 [SR 142,801, Osanetant]	–	–	active on positive symptoms of schizophrenia	inactive in the treatment of negative symptoms
